# Biological target: M. tuberculosis 3β-hydroxysteroid dehydrogenase (Mycobacterium tuberculosis, UniProt P9WQP7)
# Assay: 3β-hydroxysteroid dehydrogenase in vitro inhibitory activity assay
# Assay type: biochemical
# Conditions: not given
# M. tuberculosis 3β-hydroxysteroid dehydrogenase, sequence (P9WQP7 whole entry, looked up): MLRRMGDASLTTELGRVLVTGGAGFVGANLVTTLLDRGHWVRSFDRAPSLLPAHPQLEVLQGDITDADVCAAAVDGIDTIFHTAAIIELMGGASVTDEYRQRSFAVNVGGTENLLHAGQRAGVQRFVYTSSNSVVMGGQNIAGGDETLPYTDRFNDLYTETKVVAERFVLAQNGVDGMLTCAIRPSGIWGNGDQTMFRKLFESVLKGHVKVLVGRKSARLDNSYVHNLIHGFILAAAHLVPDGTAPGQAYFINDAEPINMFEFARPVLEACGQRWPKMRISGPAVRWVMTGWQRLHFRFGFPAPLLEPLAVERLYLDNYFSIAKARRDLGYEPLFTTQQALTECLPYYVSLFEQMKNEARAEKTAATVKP
row,SMILES,IC50 [µM]
1,CC(C)(C)c1ccc(C(F)(F)F)cc1NC(=O)[C@H]1CCC2C3CNC4=CC(=O)CC[C@]4(C)C3CC[C@@]21C (stereo partly shown),1 to 50
2,CC(C)(C)c1ccc(C(C)(C)C)c(NC(=O)[C@H]2CCC3C4CNC5=CC(=O)CC[C@]5(C)C4CC[C@@]32C)c1 (stereo partly shown),1 to 50
3,CC(C)CCCC(C)[C@H]1CCC2C3CNC4=CC(=O)CC[C@]4(C)C3CC[C@@]21C (stereo partly shown),< 1
4,C[C@]12CCC(=O)C=C1NCC1C2CC[C@@]2(C)C1CC[C@@H]2C(=O)Nc1ccc(N2CCOCC2)cc1 (stereo partly shown),> 50

# Same assay, conditions: purified enzyme, 150 μM dehydroepiandrosterone, 3.5 mM NAD+, pH 8.5, NADH at 340 nm; read-out: IC50 M. tuberculosis 3β-hydroxysteroid dehydrogenase
row,SMILES,IC50 [µM]
1,C[C@]12CCC(=O)C=C1NCC1C2CC[C@@]2(C)C1CC[C@@H]2C(=O)O (stereo partly shown),> 50
2,C[C@]12CCC(=O)C=C1NCC1C2CC[C@@]2(C)C1CC[C@@H]2C(=O)Nc1ccccc1C(=O)c1ccccc1 (stereo partly shown),1 to 50
3,CC(C)CCCC(C)[C@H]1CCC2C3C(CC[C@@]21C)[C@@]1(C)CCC(=O)C=C1N[C@H]3C (stereo partly shown),1 to 50

# — patent publication US8481530B2, “3β-hydroxysteroid dehydrogenase inhibitors” (The Research Foundation of State University of New York, priority 2007, dated 2013)
